One assay has as its system transgenic canola lines. Nature of the assay: Glyphosate spray test, reproductive scores of transgenic canola (Example 21). Type of assay: in vivo. The text has this:
Transgenic plants containing the Arabidopsis EPSP synthase gene containing a single glycine to alamine mutation at […] 101 driven by either the FMV promoter or the CaMVe35S promoter were obtained and analyzed for resistance to glyphosate. The transgenic plants containing the Arabidopsis EPSP synthase gene (as described above) directed by the FMV promoter contained pMON996, FIG. 12 and FIG. 13, while those plants containing the enhanced CaMVe35S promoter contained pMON899. These transgenic plants were planted and the seed from the Ro plants harvested, threshed and dried before planting for a glyphosate spray test. The progeny were planted in 4-inch square pots of Metro 350 and three types of slow release fertilizers. A goal of twenty seedlings from each Ro plant is desirable for testing. Germination frequency is usually high but overplanting ensures that twenty seedlings are present. The plants were thinned down by selecting the twenty most vigorous and erect seedlings seven to ten days after planting. A negative control (non-transformed, "Westar" variety) was planted at the same time to maintain quality and display the results. The plants were maintained and grown in a greenhouse environment. A sixteen-hour photoperiod and a temperature of 21° C. (day) and 15° C. (night) was maintained. […]

Another assay relates to petunia leaf disks. Nature of the assay: Callus growth from petunia leaf disks on MS media with glyphosate. Type of assay: cell-based. The procedure: Leaf disks with diameters of 6 mm (1/4 inch) were taken from surface-sterilized petunia leaves. They were cultivated on MS104 agar medium for 2 days to promote partial cell wall formation at the wound surfaces. They were then submerged in a culture of A. tumefaciens cells containing both pMON546 and GV3111-SE which had been grown overnight in Luria broth at 28° C., and shaken gently. The cells were removed from the bacterial suspension, blotted dry, and incubated upside down on filter paper placed over "nurse" cultures of tobacco cells, as described in Horsch 1981. Afer 2 or 3 days, the disks were transferred to petri dishes containing MS media with 500 μg/ml carbenicillin and 0, 0.1, 0.25, or 0.5 mM glyphosate (sodium salt), with no nurse cultures.
Control tissue was created using A. tumefaciens cells containing the helper plasmid pGV3111-SE and a different plant transformation vector, pMON505, which contained a T-DNA region with a NOS/NPTII/NOS kanamycin resistance gene and a NOS selectable marker gene identical to pMON546, but without the CaMV/EPSPS gene.
Within 10 days after transfer to the media containing glyphosate, actively growing callus tissue appeared on the periphery of all disks on the control plate containing no glyphosate. […] This confirms that the CaMV/EPSPS gene conferred glyphosate resistance upon the transformed cells.

The test system of a further assay is tobacco leaf fragments. The experiment in a line: Tobacco leaf callus assay on glyphosate. The class given is cell-based, tobacco (Samsun variety). The conditions noted are these: 0.5 mM glyphosate, 10 days. The protocol:
Transformed tobacco plants (Samsun variety) were produced and grown by the method described in Example 4, substituting transformed tobacco leaf disks for transformed petunia leaf disks.
Tobacco plants were tested for glyphosate resistance using the method described for tomato plants in Example 5. Tobacco leaf fragments from plants containing vector alone (pMON200) or the pMON546 chimeric EPSPS gene were incubated on callus medium containing 0.5 mM glyphosate.

In the next assay the target is EPSPS (Escherichia coli, UniProt P0A6D3). The class given is biochemical, E. coli. An excerpt: (§1) This mutant bacterium was designated E. coli 11303 SM-1. The aroA gene encoding EPSPS from this mutant bacterium was isolated as follows.
Isolation of aroA gene encoding EPSPS from E. coli 11303 SM-1: The DNA from this bacterium was isolated (Marmur, J. (1961) J. Mol. Biol. 3:208-218). […] This fragment was cloned into the vector pKC7 (Rao, R. N. & Rogers, S. G. (1979), Gene, F. Jul. 7, 1982) and the resulting plasmid was used for trans-formation of E. coli. […] This clone was designated pMON9538. […] This clone was designated pMON9540. […] The E. coli mutant EPSPS gene was incorporated into plant transformation vector with and without a chloroplast transit peptide in the following manner.

A further assay deals with flax callus. Nature of the assay: Flax callus resistance to glyphosate. Type of assay: cell-based. The conditions noted are these: glyphosate between 5.0 and 20.0 mM. The protocol: Flax seeds are surface-sterilized with 70% ethanol, 25% Chlorox and rinsed with sterile distilled water. The seeds are placed on solid MS medium and allowed to germinate in the light for 5-7 days. The hypocotyls are removed aseptically and inoculated with A. tumefaciens cells containing the above-described transformation vector and helper plasmid pTiB6S3-SE or pTiT37-SE and permitted to co-culture for 2 days on MS medium containing 1 mg/l benzylaminopurine, 0.02 mg/l naphthalene acetic acid and 4% sucrose. The hypocotyls are then placed on MS medium supplemented with 400 mg/l kanamycin and 500 mg/l carbenicillin.
Control tissue is prepared using A. tumefaciens cells containing helper plasmid pTiB6S3-SE or pTiT37-SE and vector pMON200.

The next assay concerns E. coli 11303 SM-1. The experiment in a line: Growth of E. coli culture in glyphosate-containing growth medium. Type of assay: cell-based. The conditions noted are these: mutant E. coli 11303 SM-1, glyphosate 10 mM or higher in growth medium. The protocol: Cells of E. coli ATCC 11303 were transferred to medium A and incubated at 37° C.
as §1

The source of these data is patent publication US5188642A, “Glyphosate-resistant plants” (priority 1990, dated 1993).

In the case of `O=C(O)CNCP(=O)(O)O` [glyphosate, N-phosphonomethylglycine], the “reproductive scores (scale 0-10)” value with transgenic canola lines (0.28 Kg/ha, 28 days after spraying, three of the seven lines with FMV promoter (pMON996) versus CaMVe35S lines (pMON899), FIG. 14) is on record as “better than any of the scores from lines containing the CaMVe35S promoter (pMON899)”. Moreover, the “level of glyphosate tolerance” value in the assay on transgenic canola lines (transgenic lines containing pMON899 (CaMVe35S promoter) used in FIG. 14) is recorded as “highest levels of glyphosate tolerance among 150 lines previously tested”. Besides, in the assay on petunia leaf disks (0.1 mM glyphosate (sodium salt), within 10 days, control pMON505, transformed pMON546), the “callus growth, control disks versus transformed tissue” value is “little detectable difference between the control disks and the transformed tissue”. Further, the callus growth in the assay with petunia leaf disks (control disks (pMON505), 0.25 mM glyphosate (sodium salt)) is “very little growth of callus from control disks”; with petunia leaf disks (control disks (pMON505), 0.5 mM glyphosate (sodium salt)) it was “no callus growth from the control disks”; with petunia leaf disks (transformed disks (pMON546, CaMV/EPSPS), 0.5 mM glyphosate (sodium salt)), “a significant number of calli grew from the transformed disks”; in the assay on petunia leaf disks (transformed tissue (pMON546, CaMV/EPSPS), 0.25 mM glyphosate (sodium salt)), “substantial growth of transformed tissue occurred”. The “callus growth from leaves” value with tobacco leaf fragments (control tobacco leaves (pMON200 vector alone)) is “completely inhibited and showed no signs of callus growth”. The “glyphosate resistance of leaves” value in the assay with tobacco leaf fragments (leaves from plants transformed with chimeric petunia EPSPS gene (pMON546)) was “confers glyphosate resistance to tobacco plants”. Moreover, the “glyphosate sensitivity of EPSPS” value at EPSPS (EPSPS of mutant cells (E. coli 11303 SM-1) compared with wild type E. coli) is listed as “significantly different from that of wild type”. The “glyphosate tolerance of EPSPS” value on EPSPS (EPSPS produced by hybrid K-12/11303 SM-1 aroA gene (pMON9540)) is given as “retained its glyphosate tolerance”. In the assay with flax callus (control tissue (pMON200)), the tissue response result is “bleaches and dies”. For the same compound, the callus resistance with flax callus (selected callus transformed with EPSPS vector) is “demonstrates resistance to glyphosate”. Further, the growth of culture result with E. coli 11303 SM-1 is on record as “could grow rapidly”.
